Tests used:
Experiment in all cases: ATP level assay (CellTiter-Glo), percent of control
Format in all cases: cell-based
T47D (breast cancer) = settings: two hour incubation; for activity at 100 µM: Homo sapiens, T47D, 2 h, compound alone, control DMSO, read-out: POC (percent of control) T47D
HeLa (cervical cancer) = settings: two hour incubation; for activity at 100 µM: Homo sapiens, HeLa, 2 h, compound alone, control DMSO, read-out: POC (percent of control) HeLa
[1] = tested on: BxPC3 (pancreatic cancer); settings: two hour incubation; for activity at 100 µM: Homo sapiens, BXPC-3, 2 h, compound alone, control DMSO, read-out: POC (percent of control) BxPC3
NCI-H196 (lung cancer) = settings: two hour incubation; for activity at 100 µM: NCI-H196, 2 h, compound alone, control DMSO, read-out: POC (percent of control) NCI-H196
H293 (kidney cancer) = settings: two hour incubation; for activity at 100 µM: 2 h, compound alone, control DMSO, read-out: POC (percent of control) H293
MCF7 (breast cancer) = settings: two hour incubation; for activity at 100 µM: Homo sapiens, MCF7, 2 h, compound alone, control DMSO, read-out: POC (percent of control) MCF7
[2] = tested on: MCF10A (non-cancerous breast); settings: two hour incubation; for activity at 100 µM: Homo sapiens, MCF-10A, 2 h, compound alone, control DMSO, read-out: POC (percent of control) MCF10A
SkBr3 (breast cancer) = settings: two hour incubation; for activity at 100 µM: Homo sapiens, SK-BR-3, 2 h, compound alone, control DMSO, read-out: POC (percent of control) SkBr3
HDF (normal cells) = settings: two hour incubation; for activity at 100 µM: 2 h, compound alone, control DMSO, read-out: POC (percent of control) HDF
MDA-MB (breast cancer) = settings: two hour incubation; for activity at 100 µM: 2 h, compound alone, control DMSO, read-out: POC (percent of control) MDA-MB
PC3 (prostate cancer) = settings: two hour incubation; for activity at 100 µM: 2 h, compound alone, control DMSO, read-out: POC (percent of control) PC3
[3] = compound 100 uM + 2DG (about 10-20 mM)
[4] = compound 100 uM + rotenone (approximately 1.25 μM)

Compound | activity at 100 µM (T47D (breast cancer)) [%] | POC (percent of control) T47D (T47D (breast cancer); [3]) | POC (percent of control) T47D (T47D (breast cancer); [4]) | activity at 100 µM (HeLa (cervical cancer)) [%] | POC (percent of control) HeLa (HeLa (cervical cancer); [3]) | POC (percent of control) HeLa (HeLa (cervical cancer); [4]) | activity at 100 µM [1] [%] | POC (percent of control) BxPC3 [1, 3] | POC (percent of control) BxPC3 [1, 4] | activity at 100 µM (NCI-H196 (lung cancer)) [%] | POC (percent of control) NCI-H196 (NCI-H196 (lung cancer); [3]) | POC (percent of control) NCI-H196 (NCI-H196 (lung cancer); [4]) | activity at 100 µM (H293 (kidney cancer)) [%] | POC (percent of control) H293 (H293 (kidney cancer); [3]) | POC (percent of control) H293 (H293 (kidney cancer); [4]) | activity at 100 µM (MCF7 (breast cancer)) [%] | POC (percent of control) MCF7 (MCF7 (breast cancer); [3]) | POC (percent of control) MCF7 (MCF7 (breast cancer); [4]) | activity at 100 µM [2] [%] | POC (percent of control) MCF10A [2, 3] | further results
COc1ncccc1CNS(=O)(=O)c1ccccc1 [Compound 13, N-[(2-methoxypyridin-3-yl)methyl]benzenesulfonamide] | 84.3 | 88.8% of control | 90% of control | 94.6 | 90.7% of control | 94.1% of control | 91.2 | 74.1% of control | 55.3% of control | 87.6 | 127.4% of control | 99.7% of control | 101 | 69.4% of control | 81.1% of control | 127 | 89.7% of control | 116.5% of control | 94.8 | 96.1% of control | POC (percent of control) MCF10A [2, 4]: 84% of control; activity at 100 µM (SkBr3 (breast cancer)): 101%; POC (percent of control) SkBr3 (SkBr3 (breast cancer); [3]): 87.2% of control; POC (percent of control) SkBr3 (SkBr3 (breast cancer); [4]): 96.5% of control; activity at 100 µM (HDF (normal cells)): 96.5%; POC (percent of control) HDF (HDF (normal cells); [3]): 104.2% of control; POC (percent of control) HDF (HDF (normal cells); [4]): 98.3% of control; activity at 100 µM (MDA-MB (breast cancer)): 101%; POC (percent of control) MDA-MB (MDA-MB (breast cancer); [3]): 81.9% of control; POC (percent of control) MDA-MB (MDA-MB (breast cancer); [4]): 103.8% of control; activity at 100 µM (PC3 (prostate cancer)): 82.2%; POC (percent of control) PC3 (PC3 (prostate cancer); [3]): 97.3% of control; POC (percent of control) PC3 (PC3 (prostate cancer); [4]): 101.2% of control
O=S(=O)(NCc1cncnc1)c1ccc(Cl)cc1 [Compound 14, 4-chloro-N-(pyrimidin-5-ylmethyl)benzenesulfonamide] | 86.7 | 106.4% of control | 114.8% of control | 98.3 | 106.4% of control | 102.1% of control | 93.8 | 95.4% of control | 60.9% of control | 86.9 | 107.3% of control | 109% of control | 84.9 | 82.1% of control | 82.4% of control | 126 | 109.8% of control | 94.4% of control | 103 | 119.1% of control | POC (percent of control) MCF10A [2, 4]: 94.3% of control; activity at 100 µM (SkBr3 (breast cancer)): 107%; POC (percent of control) SkBr3 (SkBr3 (breast cancer); [3]): 96.9% of control; POC (percent of control) SkBr3 (SkBr3 (breast cancer); [4]): 98.3% of control; activity at 100 µM (HDF (normal cells)): 96.1%; POC (percent of control) HDF (HDF (normal cells); [3]): 96.3% of control; POC (percent of control) HDF (HDF (normal cells); [4]): 90.9% of control; activity at 100 µM (MDA-MB (breast cancer)): 105%; POC (percent of control) MDA-MB (MDA-MB (breast cancer); [3]): 86% of control; POC (percent of control) MDA-MB (MDA-MB (breast cancer); [4]): 87.5% of control; activity at 100 µM (PC3 (prostate cancer)): 111%; POC (percent of control) PC3 (PC3 (prostate cancer); [3]): 101.7% of control; POC (percent of control) PC3 (PC3 (prostate cancer); [4]): 101.7% of control
O=S(=O)(NCc1cncnc1)c1ccccc1 [Compound 15, N-(pyrimidin-5-ylmethyl)benzenesulfonamide] | 89.6 | 82.5% of control | 109.4% of control | 103 | 113.9% of control | 102.2% of control | 98.8 | 70.8% of control | 88.9% of control | 92.3 | 115.4% of control | 104.5% of control | 99.8 | 74.7% of control | 84.4% of control | 148 | 103.4% of control | 96.4% of control | 105 | 122% of control | POC (percent of control) MCF10A [2, 4]: 98.4% of control; activity at 100 µM (SkBr3 (breast cancer)): 117%; POC (percent of control) SkBr3 (SkBr3 (breast cancer); [3]): 123.3% of control; POC (percent of control) SkBr3 (SkBr3 (breast cancer); [4]): 93% of control; activity at 100 µM (HDF (normal cells)): 89.2%; POC (percent of control) HDF (HDF (normal cells); [3]): 100.2% of control; POC (percent of control) HDF (HDF (normal cells); [4]): 91.1% of control; activity at 100 µM (MDA-MB (breast cancer)): 108%; POC (percent of control) MDA-MB (MDA-MB (breast cancer); [3]): 91.2% of control; POC (percent of control) MDA-MB (MDA-MB (breast cancer); [4]): 90.8% of control; activity at 100 µM (PC3 (prostate cancer)): 109%; POC (percent of control) PC3 (PC3 (prostate cancer); [3]): 117.6% of control; POC (percent of control) PC3 (PC3 (prostate cancer); [4]): 106.4% of control
Cc1ccc(S(=O)(=O)NCc2cnccn2)cc1 [Compound 16, 4-methyl-N-(pyrazin-2-ylmethyl)benzenesulfonamide] | 91.1 | 111.6% of control | 99.3% of control | 96.8 | 106.8% of control | 102.3% of control | 103 | 95.4% of control | 72.7% of control | 110 | 99.2% of control | 97.6% of control | 80.1 | 80.7% of control | 81.6% of control | 123 | 93.3% of control | 107.5% of control | 113 | 118.9% of control | POC (percent of control) MCF10A [2, 4]: 86.2% of control; activity at 100 µM (SkBr3 (breast cancer)): 91.9%; POC (percent of control) SkBr3 (SkBr3 (breast cancer); [3]): 81.4% of control; POC (percent of control) SkBr3 (SkBr3 (breast cancer); [4]): 104% of control; activity at 100 µM (HDF (normal cells)): 94.3%; POC (percent of control) HDF (HDF (normal cells); [3]): 95.6% of control; POC (percent of control) HDF (HDF (normal cells); [4]): 98.3% of control; activity at 100 µM (MDA-MB (breast cancer)): 106%; POC (percent of control) MDA-MB (MDA-MB (breast cancer); [3]): 104.5% of control; POC (percent of control) MDA-MB (MDA-MB (breast cancer); [4]): 92.7% of control; activity at 100 µM (PC3 (prostate cancer)): 109%; POC (percent of control) PC3 (PC3 (prostate cancer); [3]): 113.1% of control; POC (percent of control) PC3 (PC3 (prostate cancer); [4]): 95.1% of control
Cc1ccc(S(=O)(=O)NCc2cscn2)cc1 [Compound 17, 4-methyl-N-(1,3-thiazol-4-ylmethyl)benzenesulfonamide] | 83 | 89.1% of control | 104.6% of control | 90.3 | 118.8% of control | 110.3% of control | 91.4 | 101.4% of control | 75.7% of control | 96.8 | 103.8% of control | 89.4% of control | 80.4 | 85.8% of control | 74.9% of control | 145 | 114.6% of control | 90.6% of control | 92.4 | 97.1% of control | POC (percent of control) MCF10A [2, 4]: 91.6% of control; activity at 100 µM (SkBr3 (breast cancer)): 90.1%; POC (percent of control) SkBr3 (SkBr3 (breast cancer); [3]): 88.8% of control; POC (percent of control) SkBr3 (SkBr3 (breast cancer); [4]): 95.4% of control; activity at 100 µM (HDF (normal cells)): 90.7%; POC (percent of control) HDF (HDF (normal cells); [3]): 98% of control; POC (percent of control) HDF (HDF (normal cells); [4]): 84.1% of control; activity at 100 µM (MDA-MB (breast cancer)): 105%; POC (percent of control) MDA-MB (MDA-MB (breast cancer); [3]): 89.8% of control; POC (percent of control) MDA-MB (MDA-MB (breast cancer); [4]): 98.1% of control; activity at 100 µM (PC3 (prostate cancer)): 113%; POC (percent of control) PC3 (PC3 (prostate cancer); [3]): 93.7% of control; POC (percent of control) PC3 (PC3 (prostate cancer); [4]): 90.9% of control

Reference: patent US20230266302A1, “SYNTHESIS AND USE OF N-BENZYL SULFONAMIDES” (THE UNIVERSITY OF TULSA, priority 2020, published 2023)
